US7993638B2, “Cancer treatment combining lymphodepleting agent with CTLs and cytokines” (Janssen Pharmaceutica NV, priority 2006, dated 2011)

Experiments:
[1] = subcutaneous versus IV; cited from earlier work
[2] = 0.07 mg/kg/day x 5 days monthly for 6 months, cited from earlier work
lymphocytes [3] = details: […] s.c., 5 consecutive days (total 0.7 mg/kg), hairy cell leukemia patients; cited from earlier work
lymphocytes [4] = details: cited from earlier work
[5] = system: class I and melanoma-associated antigen expression; test: Study 2: IHC stains of serial biopsy samples after 5-day course of IFN-alpha; format: in vivo, human; details: 10 MU/m^2 s.c., five day course; serial biopsies of a single patient
Description: Interferon-alpha (IFN-α) has a broad spectrum of immunomodulatory and antiproliferative effects in a variety of malignancies. It is believed that one mechanism of action of IFN-α is the upregulation of tumor antigen expression on melanoma cells. It has the ability to enhance the expression of immunologically important molecules on the surface of the tumor. These include the MHC antigens, accessory molecules, as well as tumor-associated antigens.^25-27 These immunomodulatory effects may improve the activity of the immune system, including both antibodies and lymphocytes, to recognize and attack tumor cells in vivo. […] It is believed that these two modalities of immunotherapy may act synergistically. […] The same 5-day course in clinical study was included in Study 3.

[6] = administered for 4 monthly courses

| Molecule | pharmacokinetic and therapeutic results of subcutaneous route [1] | haematological toxicity ([2]; cumulative 2.1 mg/kg) | patients with mild segmental herpes zoster ([2]; 27 patients in drug arm, one case on placebo) | safety (lymphocytes [3]) | lymphopenia (lymphocytes [4]; MS patients) | time at which lymphocyte levels begin to recover (lymphocytes [4]; [6]) [months] | time to lymphocyte nadir (lymphocytes [4]; [6]) [months] | upregulation of class I and melanoma-associated antigen expression (IHC) [5] |
| --- | --- | --- | --- | --- | --- | --- | --- | --- |
| Nc1nc(Cl)nc2c1ncn2[C@H]1C[C@H](O)[C@@H](CO)O1 [cladribine, 2-chloro-2′deoxy-β-D-adenosine] | entirely equivalent to the IV route | no individual cases of significant thrombocytopenia, anemia granulocytopenia or generalized marrow suppression | two | safe | observed in all patients | ≤ 6 | 5 | – |
| IFN-α | – | – | – | – | – | – | – | sufficient to upregulate both class I and melanoma-associated antigen expression |
